Entries after “also recorded” stand apart in the source; their conditions may differ.
What was measured:
[1] = system: citric acid (0.5 M)-induced cough; assay: Citric acid-induced cough reflux in pretreatment guinea pigs, oral administration; type: in vivo, Hartly strain guinea pigs; conditions: guinea pigs; for inhibition of citric acid-induced cough (number of coughs): oral (compound A 1, 3, 10 mg/kg; compound B 1, 3, 10, 30 mg/kg); for inhibition of citric acid-induced cough (number of coughs) / dose at which a significant inhibitory action on citric acid-induced cough was exhibited: 0.5 M citric acid 1 h after administration; for dose at which a significant inhibitory action on citric acid-induced cough was exhibited: oral
Text: (§1) Cough reflux is induced by inhalation of (in the case of mice, 0.1 M or 0.25 M and in the case of guinea pigs, 0.25 M or 0.5 M) citric acid by mice or guinea pigs under non-anesthesia conditions. The citric acid is made aerosol by using an ultrasonic nebulizer (NE-U17: OMRON Corporation), and is inhaled while the air is supplied with an artificial respirator (SN-480-7: Shinano Seisakusho). The citric acid aerosol has an average particle size of from 1 to 8 μm, and the artificial respirator is used to supply the air at a one-time ventilation volume of 6 mL, a frequency of 30 times per min, and an inhalation period of 3 min.
The respiration and the cough reflux are measured in accordance with the body-plethysmograph method. The plethysmograph used includes: a plastic-made, cylindrical cylinder part in which the trunk of each mouse or guinea pig is housed; and a cap part that covers the head portion (any plastic-made cylinder is allowed as long as each experimental animal can be put in; in the case of the mouse, for instance, the part with a diameter of 4 cm and a length of 7 cm was used). An exhaust hole is created at an upper cylinder portion so as to be able to connect, via a silicon tube, to a respiratory flow meter (TP-602T: NIHON KOHDEN CORPORATION). To tightly seal the inside of the cylinder, a rubber or celluloid collar is attached to the neck of each animal, and the cap covering the whole head is used to fix them. The head-attached cap part has an exhaust port and an inhalation port created for inhalation of a cough-inducing substance. In addition, a screw-type lid is attached to a tail portion of the cylinder so as to move in or out each experimental animal. Each mouse is put in the cylinder, allowed to play for at least 30 min, adapted to an experimental environment, and then subjected to the experiment. The respiration is recorded in a PC (IdeaPad 300: Lenovo) for measurement by measuring, as a change in volume of the cylinder, the chest movement of each experimental animal in the cylinder by using a PowerLab (ML826 PowerLab 2/26: AD Instruments) via a respiratory flow meter. When a cough is induced, the chest of the experimental animal is moved vigorously, which causes an instantaneous large volume change in the cylinder. This change is recorded using the respiratory flow meter. This frequency is recorded to measure the number of coughs. The data is analyzed by LabChart version 8 (ADInstruments). In addition, immediately before inhalation of citric acid, the respiratory frequency per 15 sec is measured.
In this way, the effects were investigated.
At that time, Hartly strain guinea pigs were used as the guinea pigs, and 0.5 M citric acid was used as the citric acid.
In this way, the effects were investigated. Here, 0.5 M citric acid was used as the pretreated citric acid.

[2] = system: citric acid (0.1 M)-induced cough; assay: Citric acid-induced cough in airway inflammation (LPS) model mice, oral administration; type: in vivo, ICR strain mice; conditions: oral 0.3 mg/kg 1 h before 0.1 M citric acid stimulation
Procedure: Model mice with chronic cough caused by airway inflammation (referred to as “airway inflammation model mice”) were produced.
The airway inflammation model mice were produced while the mice were nasally instilled with lipopolysaccaride (LPS:1 μg/100 μL) daily for 3 days under diethyl ether inhalation anesthesia.
In addition, experiments for evaluating medicament efficacy on the airway inflammation model mice were conducted at 24 h after the final LPS administration.
Cough reflux is induced by inhalation of (in the case of mice, 0.1 M or 0.25 M and in the case of guinea pigs, 0.25 M or 0.5 M) citric acid by mice or guinea pigs under non-anesthesia conditions. […]
(§2) The respiration and the cough reflux are measured in accordance with the body-plethysmograph method. […] The respiration is recorded in a PC (IdeaPad 300: Lenovo) for measurement by measuring, as a change in volume of the cylinder, the chest movement of each experimental animal in the cylinder by using a PowerLab (ML826 PowerLab 2/26: AD Instruments) via a respiratory flow meter. […] This change is recorded using the respiratory flow meter. This frequency is recorded to measure the number of coughs. The data is analyzed by LabChart version 8 (ADInstruments). In addition, immediately before inhalation of citric acid, the respiratory frequency per 15 sec is measured. […]

[3] = system: citric acid (0.25 M)-induced cough; assay: Citric acid-induced cough in mice, local application by inhalation using a nebulizer; type: in vivo, ICR strain mice; conditions: inhalation of 10, 30 or 100 μg/mL by nebulizer, 0.25 M citric acid after 4 min
Text: as §1, §2

[4] = system: citric acid (0.25 M)-induced cough; assay: Citric acid-induced cough in OVA-sensitized cough model guinea pigs, oral administration; type: in vivo, Hartly strain guinea pigs; conditions: oral 1 mg/kg 1 h before citric acid stimulation; for cough response increased due to airway inflammation: OVA-sensitized cough group guinea pigs
Text: When OVA, a foreign antigen, is inhaled, airway inflammation accompanied by eosinophil infiltration is induced. Consequently, OVA-sensitized guinea pigs present symptoms of allergic cough and atopic cough. Thus, the guinea pigs have been widely used as a pathological model (antigen-induced airway inflammation model animals) reflecting human clinical conditions. Here, in the Examples of the present application, whether a compound(s) of the present application elicited cough inhibitory action against the pathological model was evaluated.
The OVA-sensitized cough model guinea pigs were produced specifically by the following procedure.
Note that in the following procedure, Ovalbumin or mepyramine maleate is dissolved in saline and then used.
The number of citric acid-induced coughs is measured. Then, a mixture of 200 μL of 0.05% OVA (Ovalbumin) and 100 μL of Imject Alum (prepared by suspending aluminum hydroxide and magnesium hydroxide, each at a concentration of 40 mg/mL, in water and by adding an inactivating stabilizer thereto) per guinea pig is administered intraperitoneally (i.p.).
After the intraperitoneal administration, 0.5% OVA is given for 5 min by inhalation at days 7, 14, 21, and 28.
Note that at 30 min before the inhalation, mepyramine maleate (10 mg/kg) is given i.p. to prevent a shock symptom.
At Day 35, 0.5% ovalbumin is given for 60 min by inhalation. Note that at 30 min before the inhalation, mepyramine maleate (10 mg/kg) is given i.p. to prevent a shock symptom.
The next day of the final 0.5% ovalbumin challenge (day 35), the test is conducted.
(§3) OVA-sensitized cough model guinea pigs were used and stimulated with 0.25 M citric acid by the same procedure as of Example 9 to induce cough reflux. For guinea pigs used in this Example, Hartly strain guinea pigs were used for any of the below-described pretreatment guinea pigs, sham group guinea pigs, and OVA-sensitized cough group guinea pigs.
as §3, with “10” for “9”

[5] = system: ACh-induced contraction of bronchial smooth muscle; assay: Contraction of tracheobronchial smooth muscles excised from guinea pig (isometric tension, organ bath)
Procedure: An animal was sacrificed by phlebotomy while the ventral aorta was dissected under urethane (2 g/kg, i.p.) anesthesia. Then, a left major bronchial tissue was excised. After a connective tissue and blood vessels were removed, each ring specimen with a width of about 3 mm was prepared and suspended in an organ bath. Then, the isometric tension was measured while the resting tension was set to 1.0 g. After the baseline tension was stabilized, whether each ring specimen was subject to an acetylcholine (ACh: 10^−3 M)-mediated contraction reaction was verified. Then, the following mater was investigated. […] Next, a tracheal or left major bronchial tissue was excised. After a connective tissue and blood vessels were removed, each ring specimen with a width of about 3 mm was prepared and suspended in an organ bath. Then, the isometric tension was measured while the resting tension was set to 1.0 g. After the baseline tension was stabilized, whether each ring specimen was subject to an acetylcholine (ACh: 10^−3 M)-mediated contraction reaction was verified. Then, the following mater was investigated. […] The specimen was likewise treated with just 0.1% DMSO.

[6] = system: citric acid (0.25 M)-induced cough; assay: Citric acid-induced cough reflux in pretreatment mice, oral administration; type: in vivo, ICR strain mice

Row | SMILES | inhibition of citric acid-induced cough (number of coughs) [1] | dose at which a significant inhibitory action on citric acid-induced cough was exhibited [1] [mg/kg] | cough response increased due to airway inflammation ([2]; airway inflammation group mice) | change in the number of coughs in sham group mice ([2]; sham group mice (saline instead of LPS), sodium salt, 0.3 mg/kg) | antitussive effect by local application [3] | cough response increased due to airway inflammation [4] | change in the number of coughs in sham group guinea pigs [4] | effect on baseline tension of bronchial smooth muscle ([5]; 10^−5 M, solvent water) | effect on 10^−5 M Ach-induced contraction reaction of bronchial smooth muscle ([5]; 10^−5 M, solvent water, about 50% contraction of the maximum contraction) | medicament efficacy on citric acid-induced cough at 0.3 mg/kg ([6]; oral 0.3 mg/kg, examination of Example 3) | cough inhibition rate, compound A versus the same dose of dihydrocodeine ([6]; oral 10 mg/kg, 0.25 M citric acid 1 h after administration) | inhibition of citric acid-induced cough (number of coughs) ([6]; oral 0.3, 1, 3 or 10 mg/kg, citric acid stimulation 1 h after administration) | dose at which a significant inhibitory action on citric acid-induced cough was exhibited ([6]; oral, citric acid stimulation 1 h after administration) [mg/kg] | medicament efficacy on citric acid-induced cough at 1 mg/kg ([1]; oral 1 mg/kg, investigation of Example 10 (FIG. 10)) | effect on ACh-induced contraction of bronchial smooth muscle ([5]; 10^−6 M in DMSO at final 0.1%, 10^−5 M ACh)
1 | O=C1CC(=O)N(c2cccc(-c3nnn[nH]3)c2)c2ccc3ccccc3c2N1.[Na] [compound A, 5-[3-(1H-tetrazol-5-yl)phenyl]-1H-naphtho[1,2-b][1,4]diazepin-2,4(3H,5H)-dione sodium salt] | inhibited citric acid-induced cough in a dose-dependent manner | ≥ 1 | inhibited completely | a change in the number of coughs was unobserved; also recorded: did not elicit any significant medicament efficacy | elicited an antitussive effect, in a dose-dependent manner, more strongly and more rapidly using a lower dose than the case of oral administration | inhibited completely | a change in the number of coughs was unobserved | did not affect | did not affect | did not elicit any significant medicament efficacy | comparable | inhibited citric acid-induced cough in a dose-dependent manner | ≥ 1 | – | –
2 | O=C1CC(=O)N(c2ccc(NC(=O)c3ccccc3I)cc2)c2ccc3ccccc3c2N1 [compound B, 5-[4-(2-iodobenzoylamino)phenyl]-1H-naphtho[1,2-b][1,4]diazepin-2,4(3H,5H)-dione] | inhibited citric acid-induced cough in a dose-dependent manner | ≥ 1 | – | – | – | inhibited completely | a change in the number of coughs was unobserved | – | – | – | – | – | – | does not elicit any significant medicament efficacy | Neither 0.1% DMSO itself, which was a solvent, nor compound B (at 10^−6 M) affected the ACh-induced contraction of bronchial smooth muscle

From patent US12233071B2, “Medicament for treating cough” (NIPPON CHEMIPHAR CO., LTD, priority 2018, dated 2025)
